Results on one compound are retold here after patent US10537535B2, “Histone deacetylase inhibitors” (The Regents of the University of California, priority 2015, dated 2020).

One experiment has as its target T1, human HDAC1 (Homo sapiens, UniProt Q13547).
T1 construct: purchased Cayman Chemical 10011563
As to the kind of experiment: Fluorometric HDAC activity assay, purified human HDAC1. Format: biochemical. As for the experimental part:
The ability of diacetyl (odor 1) to inhibit human HDAC activity was investigated using in-vitro assays with a human HDAC1 kit.
In order to directly test whether diacetyl acts as an inhibitor of HDACs, in vitro acetylation assays was performed with purified human HDACs. […]
HDAC activity of class I HDACs (HDAC1, 2, 3 and 8) was measured with the fluorometric HDAC Activity Assay kit: HDAC1 (10011563, Cayman Chemical, Ann Arbor, Mich.), HDAC2, HDAC 3 and HDAC 8 (50062, 50073 and 50068, BPS Bioscience, San Diego, Calif.), according to the manufacturer's instructions.

In a further experiment the target is T2, human HDAC8 (Homo sapiens, UniProt Q9BY41).
T2 construct: purchased BPS Bioscience 50068
T2 sequence (Q9BY41 1-377): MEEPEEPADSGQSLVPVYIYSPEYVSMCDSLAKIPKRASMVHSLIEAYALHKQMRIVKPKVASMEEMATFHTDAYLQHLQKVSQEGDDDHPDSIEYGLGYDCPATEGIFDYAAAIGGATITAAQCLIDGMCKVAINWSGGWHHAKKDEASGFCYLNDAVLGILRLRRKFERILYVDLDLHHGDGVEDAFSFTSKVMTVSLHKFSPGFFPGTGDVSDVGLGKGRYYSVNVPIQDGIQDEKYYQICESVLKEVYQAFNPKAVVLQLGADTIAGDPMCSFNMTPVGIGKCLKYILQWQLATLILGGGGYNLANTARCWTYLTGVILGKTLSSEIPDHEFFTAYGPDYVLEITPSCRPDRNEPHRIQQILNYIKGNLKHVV
The experiment is described as follows: Fluorometric HDAC activity assay, purified human HDAC8. Format: biochemical. The settings on record: purified human HDAC8, n=4-5. As for the experimental part:
In order to directly test whether diacetyl acts as an inhibitor of HDACs, in vitro acetylation assays was performed with purified human HDACs. In this example, β-hydroxybutyrate (a naturally-occurring HDAC inhibitor secreted by the liver, targeting zinc-dependent HDACs) was used for comparison. HDAC activity of class I HDACs (HDAC1, 2, 3 and 8) was measured with the fluorometric HDAC Activity Assay kit: HDAC1 (10011563, Cayman Chemical, Ann Arbor, Mich.), HDAC2, HDAC 3 and HDAC 8 (50062, 50073 and 50068, BPS Bioscience, San Diego, Calif.), according to the manufacturer's instructions.

In experiment [1] the test system is H3K9 acetylation in HEK293 cells. As to the kind of experiment: Western blot of histone acetylation in HEK293 nuclear extracts: H3K9. Type of experiment: cell-based, human. On the procedure: The effect of diacetyl on histone acetylation was further investigated using direct analysis of histone 3K9 acetylation in HEK cells. In vivo activity of diacetyl was determined by gel electrophoresis chromatography of HEK cell lysate exposed to 0 μM, 1 μM and 10 μM of diacetyl (odor 1) in whole HEK cell lysates. […] Proliferating cell nuclear antigen (PCNA; 29 kDa) is a nuclear protein included as a loading control for nuclear protein extracts.
(§1) In order to test whether diacetyl can increase acetylation of histones in vivo, human HEK293 cells were used, which offer a tractable system to prepare nuclear extracts. The cells were exposed to different doses of diacetyl for 2 or 6 hours, and monitored histone acetylation levels by Western blot analysis from nuclear extract. […] The acetylation levels of H3K14 and H4K5 were not affected (FIG. 5A).
(§2) Human embryonic kidney 293 (HEK293) cells were grown in 100 mm cell culture dishes with Dulbecco's modified Eagle's medium (DMEM) (10-013, Corning, Manassas, Va.), supplemented with 10% fetal bovine serum (FBS) (26140-079, Gibco, Carlsbad, Calif.) at 37° C. with 5% CO2. Cells that were ˜80% confluent were treated with freshly-prepared medium supplemented with diacetyl at concentrations indicated. In order to prevent diffusion of diacetyl odor from the treatment dishes to the outside environment, the cell culture dishes were put into a custom-made container (155.6×155.6×85.7 mm) with a charcoal filter top. The cells for non-treatment controls were handled in the same manner without adding diacetyl to the medium.
Nuclear extracts of HEK293 cells were prepared according to a protocol described previously (Andrews and Faller, 1991), with minor modifications. In brief, HEK293 cells were washed twice with cold phosphate-buffered saline (PBS) and lysed with hypotonic buffer (10 mM HEPES-KOH [pH 7.9], 1.5 mM MgCl2, 10 mM KCl, protease inhibitor cocktail [Roche], 1 mM DTT, 1 mM TSA). Following a brief centrifugation, the pellet was resuspended in hypertonic buffer (20 mM HEPES-KOH [pH 7.9], 25% glycerol, 420 mM NaCl 1.5 mM MgCl2, 0.2 mM EDTA, protease inhibitor cocktail (04693159001, Roche, Indianapolis, Ind.), 1 mM DTT, 1 mM TSA). The supernatant was recovered as nuclear extract.
(§3) Proteins in the nuclear extracts (60 μg protein) were separated by SDS-PAGE gels (456-1043, Bio-Rad, Hercules, Calif.), transferred onto PVDF membranes (162-0174, Bio-Rad), and incubated with anti-histone antibodies: acetylated H3K9 (1/2000: ab4441, abeam, Cambridge, Mass.), acetylated H3K14 (1/5000: 06-911, EMD Millipore, Billerica, Mass.), acetylated H4K5 (1/2000: 07-327, EMD Millipore). Bound antibody was detected by horseradish peroxidase-conjugated anti-rabbit secondary antibody (1/20000: 1705046, Bio-Rad) and developed using Clarity™ Western ECL Substrate (1705060, Bio-Rad). Signals were detected and captured by ImageQuant™ LAS 4000 mini (GE healthcare, Pittsburgh, Pa.), and band intensities were quantified with ImageJ software. H3K9 acetylation intensity in individual lanes was reported relative to the normalized Mock treatment (Mock H3K9ace/Mock PCNA), and calculated using this formula: Relative H3K9ace intensity for each timepoint=(Diacetyl H3K9ace/diacetyl PCNA)/(Mock H3K9ace/Mock PCNA).
(A western blot detects proteins with antibodies after separation by electrophoresis.)

In experiment [2] the test system is H4K5 acetylation in HEK293 cells. As to the kind of experiment: Western blot of histone acetylation in HEK293 nuclear extracts: H4K5. Type of experiment: cell-based, human. On the procedure: as §1
as §2, with “The cells for non-treatment controls were handled in the same manner without adding diacetyl to the medium.” left out
as §3

The term IC50 denotes the concentration needed to halve the response being measured. Lower therefore signals higher potency.

T1 sequence (Q13547 whole entry): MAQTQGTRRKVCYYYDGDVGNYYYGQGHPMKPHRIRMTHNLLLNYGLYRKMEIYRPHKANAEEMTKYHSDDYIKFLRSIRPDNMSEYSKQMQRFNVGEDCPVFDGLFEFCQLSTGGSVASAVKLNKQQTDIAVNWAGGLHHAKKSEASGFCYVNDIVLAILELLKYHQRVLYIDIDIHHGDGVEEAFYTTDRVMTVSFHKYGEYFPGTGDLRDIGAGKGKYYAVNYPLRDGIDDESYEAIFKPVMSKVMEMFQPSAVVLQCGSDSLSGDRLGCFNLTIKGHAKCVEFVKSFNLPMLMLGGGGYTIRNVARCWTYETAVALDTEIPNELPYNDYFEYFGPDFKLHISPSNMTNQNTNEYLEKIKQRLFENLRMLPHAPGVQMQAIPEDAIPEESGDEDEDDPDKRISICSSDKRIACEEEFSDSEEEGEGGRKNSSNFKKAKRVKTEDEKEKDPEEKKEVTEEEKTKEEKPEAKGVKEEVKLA

As for `CC(=O)C(C)=O` [diacetyl, 2,3-Butanedione], on human HDAC1 (compared with sodium butyrate, FIG. 1C), the “inhibition of human HDAC activity (human HDAC1 kit)” value is “effective HDAC inhibitor and comparable to sodium butyrate”. In addition, the IC50 was found to be 7.2 mM at human HDAC1 (purified human HDAC1, n=4-5) and 11.4 mM at human HDAC8. For the same compound, the H3K9 acetylation level entry in experiment [1] (100 μM, 120 hrs) is listed as “significantly higher levels”; in experiment [1] (100 μM, prolonged exposure 3-5 days, onset), “increased only after 96 hrs”; in experiment [1] (1 mM, 2 or 6 hours), “did not alter”; in experiment [1] (10 mM, 2 hours, vs mock) it was “significantly increased”; in experiment [1] (10 mM, 6 hours) it was “further increased”. The “level of acetyl H3K9 (H3K9Ace)” value in experiment [1] (HEK cells, 0 μM, 1 μM and 10 μM, FIG. 1D) was “increased with increasing concentrations”. For the same compound, the H4K5 acetylation level entry is reported as “did not alter” in experiment [2] (1 mM, 2 or 6 hours); “not affected” in experiment [2] (10 mM, 2 hours); “unaffected” in experiment [2] (10 mM, 6 hours).
